Key:
[1] = molecular target: Integrin alpha-V/beta-3 (Homo sapiens, UniProt P05106+P06756); experiment: Displacement of [125I]L-775,219 from human recombinant alphaV-beta3 integrin; format: protein-complex assay
[2] = Hammett constant was determined; format: functional
[3] = Bioavailability in dog; format: ADME, organism-based, Canis lupus familiaris; details: in vivo
[4] = Clearance of compound was determined in dogs; format: ADME, organism-based, Canis lupus familiaris; details: dog, in vivo
[5] = Half-life of compound was determined in dogs; format: ADME, organism-based, Canis lupus familiaris; details: dog, in vivo

Integrin alpha-V/beta-3, sequence (P05106 27-788 limits assumed): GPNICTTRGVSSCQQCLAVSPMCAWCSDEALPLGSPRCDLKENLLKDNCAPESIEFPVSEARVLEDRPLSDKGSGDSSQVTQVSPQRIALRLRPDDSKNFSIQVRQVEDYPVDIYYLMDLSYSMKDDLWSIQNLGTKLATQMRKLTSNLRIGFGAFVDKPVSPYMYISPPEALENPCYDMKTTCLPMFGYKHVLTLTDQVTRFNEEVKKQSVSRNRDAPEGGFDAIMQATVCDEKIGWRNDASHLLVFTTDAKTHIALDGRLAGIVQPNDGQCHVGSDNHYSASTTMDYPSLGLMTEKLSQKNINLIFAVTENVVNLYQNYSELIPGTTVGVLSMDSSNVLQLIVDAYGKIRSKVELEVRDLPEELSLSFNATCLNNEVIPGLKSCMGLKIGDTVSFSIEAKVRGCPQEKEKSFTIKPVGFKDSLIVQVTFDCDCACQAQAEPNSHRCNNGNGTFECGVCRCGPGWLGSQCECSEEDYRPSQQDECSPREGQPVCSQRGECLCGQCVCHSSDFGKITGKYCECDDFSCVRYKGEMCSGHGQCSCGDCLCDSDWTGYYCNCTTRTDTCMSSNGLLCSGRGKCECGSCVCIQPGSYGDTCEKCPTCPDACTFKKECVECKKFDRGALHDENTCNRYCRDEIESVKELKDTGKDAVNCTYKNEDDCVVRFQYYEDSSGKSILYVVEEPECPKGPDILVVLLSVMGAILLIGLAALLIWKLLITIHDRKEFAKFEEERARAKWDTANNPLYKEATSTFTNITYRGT
Integrin alpha-V/beta-3, sequence (P06756 31-889 limits assumed): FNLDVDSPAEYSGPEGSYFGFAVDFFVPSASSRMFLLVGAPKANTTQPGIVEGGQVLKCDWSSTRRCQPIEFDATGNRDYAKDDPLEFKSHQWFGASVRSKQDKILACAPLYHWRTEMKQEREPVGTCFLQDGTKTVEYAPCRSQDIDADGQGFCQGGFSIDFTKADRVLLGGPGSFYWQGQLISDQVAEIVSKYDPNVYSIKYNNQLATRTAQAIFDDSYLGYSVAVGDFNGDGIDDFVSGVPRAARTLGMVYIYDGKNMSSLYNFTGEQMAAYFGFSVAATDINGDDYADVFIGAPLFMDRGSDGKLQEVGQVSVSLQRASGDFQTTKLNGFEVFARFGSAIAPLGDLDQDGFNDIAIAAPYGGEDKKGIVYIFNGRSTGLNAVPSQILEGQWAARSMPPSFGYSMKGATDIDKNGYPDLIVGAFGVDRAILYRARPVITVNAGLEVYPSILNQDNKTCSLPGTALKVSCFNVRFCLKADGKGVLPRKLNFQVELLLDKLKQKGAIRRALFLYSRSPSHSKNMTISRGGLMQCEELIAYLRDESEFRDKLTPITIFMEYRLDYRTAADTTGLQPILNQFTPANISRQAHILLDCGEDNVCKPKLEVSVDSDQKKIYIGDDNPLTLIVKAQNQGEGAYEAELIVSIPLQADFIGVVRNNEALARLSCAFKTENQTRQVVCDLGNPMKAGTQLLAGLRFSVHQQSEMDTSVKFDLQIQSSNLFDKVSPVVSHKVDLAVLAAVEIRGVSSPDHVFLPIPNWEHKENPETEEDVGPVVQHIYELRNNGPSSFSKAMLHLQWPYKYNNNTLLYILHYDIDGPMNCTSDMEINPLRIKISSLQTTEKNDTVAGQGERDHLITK
Integrin alpha-V/beta-3, sequence (P06756 891-1048 limits assumed): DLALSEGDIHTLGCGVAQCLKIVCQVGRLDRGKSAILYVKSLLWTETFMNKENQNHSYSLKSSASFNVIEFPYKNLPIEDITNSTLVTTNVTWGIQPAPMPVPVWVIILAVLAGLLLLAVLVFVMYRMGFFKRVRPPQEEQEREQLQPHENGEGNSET

SMILES | IC50 [1] | bioavailability [3] | clearance [4] | half-life [5] | Sigmap [2]
C=Cc1cc2c(nc1CCCCC(=O)N(C)[C@@H](CC(=O)O)c1ccc(OC)nc1)NCCC2 | 0.3 nM | – | – | – | -0.14
COc1ccc([C@H](CC(=O)O)N(C)C(=O)CCCCc2nc3c(cc2NS(C)(=O)=O)CCCN3)cn1 | 0.9 nM | – | – | – | 0.03
COc1ccc([C@H](CC(=O)O)N(C)C(=O)CCCCc2nc3c(cc2N)CCCN3)cn1 | 0.4 nM | – | – | – | -0.3
COc1ccc([C@H](CC(=O)O)N(C)C(=O)CCCCc2ccc3c(n2)NCCC3)cn1 | 0.7 nM | 76% | – | 5.8 h | 0
COc1ccc([C@H](CC(=O)O)N(C)C(=O)CCCCc2nc3c(cc2NC(C)=O)CCCN3)cn1 | 0.6 nM | – | – | – | 0
COc1ccc([C@H](CC(=O)O)N(C)C(=O)CCCCc2nc3c(cc2-c2ccccc2)CCCN3)cn1 | 0.9 nM | – | – | – | 0.05
COc1ccc([C@H](CC(=O)O)N(C)C(=O)CCCCc2nc3c(cc2[N+](=O)[O-])CCCN3)cn1 | 36.7 nM | – | – | – | 0.81

Second part, led by results:

IC50 [1] | bioavailability [3] | clearance [4] | half-life [5] | SMILES | Sigmap [2]
0.3 nM | 65% | 2.4 mL/min/kg | 4.9 h | COc1ccc([C@H](CC(=O)O)N(C)C(=O)CCCCc2nc3c(cc2C)CCCN3)cn1 | -0.14
16.5 nM | – | – | – | COc1ccc([C@H](CC(=O)O)N(C)C(=O)CCCCc2nc3c(cc2C#N)CCCN3)cn1 | 0.71
2.3 nM | – | – | – | COc1ccc([C@H](CC(=O)O)N(C)C(=O)CCCCc2nc3c(cc2Br)CCCN3)cn1 | 0.26

From ChEMBL document CHEMBL1146671, “Non-peptide alpha v beta 3 antagonists. Part 7: 3-Substituted tetrahydro-naphthyridine derivatives” (Bioorg Med Chem Lett, 2004)
